Target: T1, triacylglycerol hydrolase (TGH) (Mus musculus, UniProt Q8VCT4)
T1 construct: from tissue
T1 sequence (Q8VCT4 19-565): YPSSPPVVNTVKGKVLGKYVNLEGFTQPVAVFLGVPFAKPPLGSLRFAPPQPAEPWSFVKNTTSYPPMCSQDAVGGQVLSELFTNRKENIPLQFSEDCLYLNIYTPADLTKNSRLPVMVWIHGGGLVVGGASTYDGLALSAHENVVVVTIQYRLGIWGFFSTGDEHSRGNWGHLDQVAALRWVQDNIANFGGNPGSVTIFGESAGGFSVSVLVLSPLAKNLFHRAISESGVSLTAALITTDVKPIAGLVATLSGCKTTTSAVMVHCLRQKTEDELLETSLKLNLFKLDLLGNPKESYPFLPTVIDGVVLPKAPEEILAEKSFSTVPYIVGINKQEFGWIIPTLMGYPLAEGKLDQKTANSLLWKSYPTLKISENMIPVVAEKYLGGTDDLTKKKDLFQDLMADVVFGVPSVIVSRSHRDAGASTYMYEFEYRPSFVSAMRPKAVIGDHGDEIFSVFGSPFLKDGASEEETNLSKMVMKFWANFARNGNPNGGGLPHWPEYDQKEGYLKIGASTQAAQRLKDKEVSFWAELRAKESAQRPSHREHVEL
Assay: Proteome-wide selectivity screening, TGH
Format: biochemical
Details: IC50 based
Description: The present invention concerns the synthesis and evaluation of a systematic series of α-keto oxazole inhibitors having variations at the C2 acyl side chain along with results of the proteome-wide selectivity screening of the candidate inhibitors. The screening protocol is described by Leung, D.; Hardouin, C.; et al. Nature Biotech. 2003, 21, 687-691.
Selectivity Screening. […] Consequently a method for proteomic-wide screening capable of globally profiling all mammalian serine hydrolases was developed (Leung, D.; Hardouin, C.; et al. Nature Biotech. 2003, 21, 687-691) and studies have shown that the α-ketoheterocycle class of inhibitors generally are exquisitely selective for FAAH (Boger, D. L.; Miyauchi, H.; et al. J. Med. Chem. 2005, 48, 1849-1856; Leung, D.; Du, W.; et al. Bioorg. Med. Chem. Lett. 2005, 15, 1423-1428; Lichtman, A. H.; Leung, D.; et al. J. Pharmacol. Exp. Ther. 2004, 311, 441-448). However, two enzymes did emerge as potential competitive targets: triacylglycerol hydrolase (TGH) and an uncharacterized membrane-associated hydrolase that lacks known substrates or function (KIAA1363). In this screen, IC50 values are typically higher than the measured Ki values, but the relative potency, the magnitude of binding affinity differences and the rank order binding determined in the assay parallels that established by standard substrate assays. […]

SMILES | selectivity for FAAH over TGH (in words)
O=C(CCCCCCc1cccnc1)c1ncc(-c2ccccn2)o1 [5f, 1-Oxo-1-[5-(2-pyridyl)oxazol-2-yl]-7-(3-pyridyl)heptane] | moderately selective
O=C(CCCCCCc1ccccn1)c1ncc(-c2ccccn2)o1 [5e, 1-Oxo-1-[5-(2-pyridyl)oxazol-2-yl]-7-(2-pyridyl)heptane] | moderately selective

Source: patent US8124778B2, “Tricyclic inhibitors of fatty acid amide hydrolase” (The Scripps Research Institute, priority 2007, dated 2012)
